Source: PMC10485820 (European Journal of Pharmaceutical Sciences, 2023)
Converted amounts (≈) assume the structure as drawn.

What was measured:
[1] = Equilibrium solubility of the HSK7653 API in various media; format: physicochemical; details: 37 °C, thermodynamic from solid
Protocol: Tests were performed by adding an excess amount of API to vials and stirring continuously at a speed of 200 rpm for 24 h at 37 °C. The API concentration was detected once per minute by an in situ fiber-optic ultraviolet (UV) dissolution real-time monitoring system (Pion Scientific Instruments, Billerica, MA, USA). All measurements were performed with n = 3.

[2] = Apparent permeability in Caco-2 monolayer cell lines; format: in vitro ADME; details: human, Caco-2
Protocol: (§1) All experiments were performed in triplicate and analyzed by high-performance liquid chromatography with tandem mass spectrometry (HPLC-MS/MS). The apparent permeability coefficient (Papp) of each compound under the corresponding concentration was calculated according to Eq. (1) and listed as follows:(1) Papp=dQ/dt×1/A×C0 Where Papp was the apparent permeability coefficient (cm/s × 10^−6), dQ/dt (pmol/second) was the rate at which the compound appears in the receiver side, C0 (nM) was the initial concentration of the compound in the donor side, and A (cm^2) represented the surface area of the cell monolayer.

Caco-2 monolayer cells = assay: as above; format: in vitro ADME; details: from Papp A→B at 1, 5, 20 μM
Protocol: as §1

[3] = Physicochemical parameters (log P, pKa) from experimental outcomes; details: Measured (in vitro)
Source text: (§2) The development of the DLM was complex.

[4] = Blood-to-plasma partition ratio and fraction unbound in plasma; format: in vitro ADME; details: Measured (in vivo)
Source text: as §2

[5] = Mass balance study (CTR20201559); format: in vivo, human
[6] = Bioavailability in rats (unpublished); details: rat, in vivo, oral
[7] = Biliary drainage study in rats (unpublished); format: in vivo
[8] = Radioactivity recovery in feces after oral administration to rats (unpublished); format: in vivo
OAT3 = target: T1, OAT3 (Homo sapiens, UniProt Q8TCC7); assay: Preclinical transporter substrate assessment (unpublished); format: in vitro ADME
T1 sequence (Q8TCC7 1-542): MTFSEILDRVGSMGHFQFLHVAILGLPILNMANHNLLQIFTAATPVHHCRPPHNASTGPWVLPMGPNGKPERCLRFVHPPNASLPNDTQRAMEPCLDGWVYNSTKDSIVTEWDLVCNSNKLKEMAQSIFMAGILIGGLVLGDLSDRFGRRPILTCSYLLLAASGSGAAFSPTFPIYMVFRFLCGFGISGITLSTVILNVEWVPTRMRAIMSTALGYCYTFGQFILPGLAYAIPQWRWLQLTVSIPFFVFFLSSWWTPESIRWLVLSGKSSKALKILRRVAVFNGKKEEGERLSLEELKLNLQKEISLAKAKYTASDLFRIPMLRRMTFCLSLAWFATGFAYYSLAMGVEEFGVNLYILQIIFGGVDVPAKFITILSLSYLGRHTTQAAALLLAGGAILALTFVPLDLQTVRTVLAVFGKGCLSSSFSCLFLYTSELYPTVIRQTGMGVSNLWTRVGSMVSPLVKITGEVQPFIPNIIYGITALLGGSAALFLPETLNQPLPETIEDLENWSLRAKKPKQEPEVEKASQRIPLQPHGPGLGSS

[9] = target: T2, breast cancer resistance protein (Homo sapiens, UniProt Q9UNQ0); assay: as above; format: in vitro ADME
T2 sequence (Q9UNQ0 1-655): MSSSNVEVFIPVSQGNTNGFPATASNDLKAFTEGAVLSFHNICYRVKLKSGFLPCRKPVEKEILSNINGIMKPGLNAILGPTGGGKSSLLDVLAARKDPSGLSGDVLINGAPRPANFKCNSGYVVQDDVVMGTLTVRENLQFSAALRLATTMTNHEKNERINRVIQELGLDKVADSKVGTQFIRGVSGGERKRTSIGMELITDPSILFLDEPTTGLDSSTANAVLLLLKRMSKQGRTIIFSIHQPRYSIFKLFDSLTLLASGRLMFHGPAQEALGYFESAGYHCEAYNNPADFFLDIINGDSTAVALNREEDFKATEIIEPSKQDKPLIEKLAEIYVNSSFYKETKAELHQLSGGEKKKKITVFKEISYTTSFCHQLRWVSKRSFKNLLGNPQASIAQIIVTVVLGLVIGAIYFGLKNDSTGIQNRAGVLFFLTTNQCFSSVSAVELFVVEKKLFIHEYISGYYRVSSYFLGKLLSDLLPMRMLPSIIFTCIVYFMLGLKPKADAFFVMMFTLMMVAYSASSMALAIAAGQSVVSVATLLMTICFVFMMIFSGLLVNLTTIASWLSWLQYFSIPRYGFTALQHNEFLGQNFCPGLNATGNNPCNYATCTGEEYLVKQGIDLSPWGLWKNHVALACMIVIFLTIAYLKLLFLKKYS

MATE2-K = MATE2-K (Homo sapiens, UniProt Q86VL8); assay: as above; format: in vitro ADME
MATE2-K, sequence (Q86VL8 1-566 isoform Q86VL8-3, species assumed): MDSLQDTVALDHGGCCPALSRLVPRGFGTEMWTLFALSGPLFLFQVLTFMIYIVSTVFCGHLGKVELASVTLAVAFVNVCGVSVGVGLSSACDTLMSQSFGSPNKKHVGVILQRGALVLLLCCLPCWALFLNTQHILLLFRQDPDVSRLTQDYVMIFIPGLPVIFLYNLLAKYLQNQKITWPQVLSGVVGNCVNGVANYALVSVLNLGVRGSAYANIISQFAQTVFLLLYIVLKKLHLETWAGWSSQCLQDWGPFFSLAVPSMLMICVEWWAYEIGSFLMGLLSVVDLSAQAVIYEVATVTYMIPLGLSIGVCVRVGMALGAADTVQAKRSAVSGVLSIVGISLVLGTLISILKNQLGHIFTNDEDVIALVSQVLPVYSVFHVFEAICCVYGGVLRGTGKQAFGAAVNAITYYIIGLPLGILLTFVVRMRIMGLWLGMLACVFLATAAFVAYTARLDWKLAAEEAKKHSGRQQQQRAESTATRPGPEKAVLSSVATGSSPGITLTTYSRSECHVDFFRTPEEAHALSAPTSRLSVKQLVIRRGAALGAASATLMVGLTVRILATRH

P-glycoprotein (P-gp) = P-glycoprotein (P-gp) (Homo sapiens, UniProt P08183); assay: as above; format: in vitro ADME
P-glycoprotein (P-gp), sequence (P08183 whole entry): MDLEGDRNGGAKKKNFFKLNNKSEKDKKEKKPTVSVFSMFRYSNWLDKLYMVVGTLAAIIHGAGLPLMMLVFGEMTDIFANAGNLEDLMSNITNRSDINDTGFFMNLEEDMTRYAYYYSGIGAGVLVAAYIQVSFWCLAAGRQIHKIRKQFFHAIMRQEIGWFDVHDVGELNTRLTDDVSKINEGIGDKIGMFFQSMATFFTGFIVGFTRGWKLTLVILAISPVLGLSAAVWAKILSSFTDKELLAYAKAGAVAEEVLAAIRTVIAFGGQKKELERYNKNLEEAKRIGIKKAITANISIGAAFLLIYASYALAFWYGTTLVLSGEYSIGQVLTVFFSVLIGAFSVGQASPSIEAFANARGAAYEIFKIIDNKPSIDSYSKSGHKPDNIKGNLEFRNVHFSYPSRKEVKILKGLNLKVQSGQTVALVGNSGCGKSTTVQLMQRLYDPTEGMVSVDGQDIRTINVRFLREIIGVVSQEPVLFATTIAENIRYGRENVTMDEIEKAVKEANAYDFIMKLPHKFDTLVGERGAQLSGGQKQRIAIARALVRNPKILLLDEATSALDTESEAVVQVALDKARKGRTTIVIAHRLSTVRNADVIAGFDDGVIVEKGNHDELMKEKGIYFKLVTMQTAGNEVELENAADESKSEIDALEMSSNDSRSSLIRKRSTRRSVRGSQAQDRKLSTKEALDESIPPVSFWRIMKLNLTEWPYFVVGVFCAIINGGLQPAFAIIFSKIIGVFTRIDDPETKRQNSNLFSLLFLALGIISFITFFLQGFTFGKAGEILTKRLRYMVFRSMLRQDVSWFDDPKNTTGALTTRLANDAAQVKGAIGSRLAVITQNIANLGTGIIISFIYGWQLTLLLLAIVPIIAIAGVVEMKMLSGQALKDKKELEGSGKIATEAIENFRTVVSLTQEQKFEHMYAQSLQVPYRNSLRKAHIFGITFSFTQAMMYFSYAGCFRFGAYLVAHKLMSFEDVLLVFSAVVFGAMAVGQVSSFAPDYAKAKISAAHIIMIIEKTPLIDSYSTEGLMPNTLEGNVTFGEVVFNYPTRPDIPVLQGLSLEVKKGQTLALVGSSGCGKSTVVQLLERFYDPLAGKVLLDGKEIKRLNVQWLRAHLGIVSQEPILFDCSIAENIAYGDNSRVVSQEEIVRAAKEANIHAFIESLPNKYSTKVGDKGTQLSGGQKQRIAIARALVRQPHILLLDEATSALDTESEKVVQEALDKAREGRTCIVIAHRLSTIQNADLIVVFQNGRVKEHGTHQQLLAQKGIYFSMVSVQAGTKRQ

glycosylated hemoglobin = assay: Multidose exploratory clinical study of T2DM patients (CTR20182505): glycosylated hemoglobin; format: in vivo, human; details: after six doses of oral administration
[10] = Drug-drug interaction study of HSK7653 with metformin, multiple doses, Chinese healthy volunteers (CTR20191549): pharmacokinetics; details: human, in vivo, oral, Multiple dose (D1 35 mg; D8/D15/D22 25 mg) with metformin, fasted
[11] = Predicted by SIVA from dissolution profile in FaSSGF
Source text: (§3) Based on the results of the two-stage biorelevant dissolution test (see Fig. 4 in 3.2 section), the precipitation parameters in the DLM were not assessed, and the critical supersaturation ratio (CSC) and precipitation rate constant (PRC) were set to the minimum values, respectively.
(§4) Furthermore, solubility parameters, representing the influence of pH and bile salts on the solubility, were estimated by Eq. (3) according to the experimental results.
(§5) Accordingly, it was unnecessary to evaluate the precipitation parameters for the development of DLM, which (CSC and PCR) were set to minimum values in DLM. Most importantly, the dissolution parameters, such as heff and DLMs, were estimated by Eq. (4) from the dissolution profile in 300 mL FaSSGF medium. Meanwhile, the disintegration lag time of the formulation was evaluated with the method of Weibull function, so that the dissolution profile could be captured by Eq. (4).

in vitro = details: human
Protocol: (§6) Reactions were stopped by removing the plates from the incubator and mixing the incubation solution with 600 μL of ice-cold stop solution (acetonitrile) at the corresponding sampling time points.

[12] = Stability in human liver microsomes incubation system (unpublished); details: 1 μM, 0.5 mg/mL human liver microsomes
Protocol: as §6

[13] = mass balance study, unpublished

Source text for physchem: as §3, §4, §5

solubility at 24 h ([1]; fassgf or other biorelevant, FaSSGF medium): ~5310 µg/mL (≈ 11400 µM)
solubility at 24 h ([1]; FaSSIF medium): ~342 µg/mL (≈ 733 µM)
solubility thermodynamic at 24 h ([1]; pH 1.0 hydrochloric acid (HCl) solution, simulated gastric fluid, pH 1.0 HCl solution): 11600 µg/mL (≈ 24800 µM)
solubility thermodynamic at 24 h ([1]; pH 8.0 phosphate buffer saline (PBS), aqueous buffer, pH 8.0 PBS): 120 µg/mL (≈ 257 µM)
Papp A→B at 2 h, 1 μM ([2]; 1 μM, 2 h, 37 °C): 25.3 ×10⁻⁶ cm/s
Papp A→B at 2 h, 5 μM ([2]; 5 μM, 2 h, 37 °C): 29.3 ×10⁻⁶ cm/s
Papp A→B at 2 h, 20 μM ([2]; 20 μM, 2 h, 37 °C): 40.3 ×10⁻⁶ cm/s
Papp at 2 h ([2]; average value of Papp at different incubation concentrations, apical pH: basolateral pH 7.4: 7.4, read-out: Caco-2 permeability, model input): 31.6 ×10⁻⁶ cm/s
Permeability classification (Caco-2 monolayer cells): high-permeability compound
logP [3]: 1.42
pKa ([3]; Monoprotic base): 6.75
fraction unbound [4]: 0.143
Fecal excretion of unchanged compound ([5]; mass balance study): 7.40%
Unchanged drug excreted by the kidney ([5]; mass balance study): 68.1%
Unrecovered radioactive substances (unknown pathway) ([5]; mass balance study): 4.1%
Detected (recovered) radioactivity [5, 13]: 95.9%
Unextracted radioactive substrates in feces [5, 13]: 2.99%
Unextracted radioactive substrates in urine [5, 13]: 1.99%
Unextracted radioactivity in urine and feces (sum) ([5]; sum of unextracted radioactivity in urine and feces): approximately 4.98%
bioavailability [6]: 94.5%
Radioactivity recovered in biliary drainage study [7]: approximately 16.6%
Radioactivity recovered in feces [8]: approximately 62.1%
Transporter substrate assessment (OAT3): not a common transport substrate
Transporter substrate assessment [9]: not a common transport substrate
Transporter substrate assessment (MATE2-K): not a common transport substrate
Transporter substrate assessment (P-glycoprotein (P-gp)): not a common transport substrate
Cmax [10]: 533 ng/mL
clearance ([10]; read-out: CL Obs (converted)): 9.17 mL/min
Vd/F ([10]; read-out: VZ/F Obs): 1.08 L/kg
DLM Scalar values ([11]; All segments): 3.009
heff cut-off value ([11]; Hintz-Johnson): 36.345 μm
half-life at 0.05 μM (in vitro; primary human plated hepatocytes): 12.2 days
hepatocyte CLint at 0.05 μM (in vitro; primary plated hepatocytes (cryopreserved, 10 donors mixed)): 0.056 µL/min/1e6 cells
solubility (physchem): 7 µg/mL (≈ 15 µM)
Metabolic stability in human liver microsomes [12]: very stable
SMILES: CS(=O)(=O)n1cc2c(n1)CN([C@@H]1C[C@H](N)[C@@H](c3cc(F)ccc3F)O[C@@H]1C(F)(F)F)C2 [HSK7653]
Glycosylated hemoglobin change (glycosylated hemoglobin): significantly reduced
